What was measured:
NF-KB = assay: EMSA of NF-KB DNA binding activity in total cell extracts of stimulated 7OZ/3 cells; assay type: cell-based, mouse; conditions: PMA treated 7OZ/3 cells, 100 μM PDTC
Description: 7OZ/3 cells (ATCC No. TIB 158) were cultivated in RPMI-1640 medium (Gibco BRL), supplemented by 10% FCS (Gibco BRL) and 50 μM 2-mercaptoethanol. 2 ml aliquots with approx. 2-3×10^6 of suspended cells was treated with 50 ng/ml PMA (Sigma) for various periods. The treatment was interrupted by immediate centrifugation (5 s in an Eppendorf Microfuge) and cooling on ice. The cell pellets were lysed with 60 μl of a high-salt extraction buffer, containing the non-ionic detergent nonidet P-40 (Baeuerle and Baltimore, 1988b). The supernatant of a 15 minute centrifugation at 13.000 rpm in an Eppendorf Microfuge was analysed by Western blotting and EMSA (electrophoretic mobility shift assay). For SDS-PAGE and Western blotting 30 μl aliquots of the extracts were mixed with 15 μl SDS sample buffer (Laemmli, 1970), boiled and subjected to a SDS-PAGE on 12.5% polyacrylamide minigels (Biorad). The proteins were transferred by using a so-called semi-dry blotting device (Biorad; 1 h at 15V/2.5 mA/cm2) from the gels onto IMMOBILON-P-filter (0.45 μm; Millipore). The efficiency of the blot was checked by protein staining of the filters with Ponceau S (Serva). The filters were blocked overnight in a Tris-buffered saline solution, containing 0,1% (v/v) TWEEN-20 (TBST), 5% low-fat milk powder (Nestle) and 1% BSA. The filter was then incubated for one hour at ambient temperature with anti IkB-α IgG in a dialysed eluate of the IkB-α affinity column and diluted by 1:100 in the blocking buffer. After washing for 30 minutes in TBST the filter was incubated in a 1:4000 solution of goat-anti-rabbit IgG/horseradish-peroxidase conjugate (Biorad) in blocking buffer. After washing for 30 minutes in TBST the filter was treated with ECL detecting reagent (Amersham) and exposed (Kodak XR film, less than 1 minute). For EMSA 2 μl aliquots of the extracts were added to a binding mixture, resulting in a final concentration of […], […], pH 7.9, […] dithiothreitol, […] phenylmethylsulfonylfluoride (PMSF), 0.2% NONIDET P-40, 5% FICOLL, 20 μg BSA, 3 μg Poly (dl-dC) and 10.000 cpm (Cerenkov counting method) of a ^32 P marked double-stranded KB-oligonucleotide probe (Gibco BRL). The specificity of the protein DNA complex was confirmed by competition experiments and supershifting with a polyclonal antibody, recognising the C-terminal 100 amino acids of Rel-A (p65). After 20 minutes of incubation on ice the samples were subjected to electrophoresis on native 4% polyacrylamide gels, run in 0.5× TBE. The dried gels were exposed (Kodak XR film, -70° C., overnight).
Cell cultures, extract production, SDS-PAGE and Western blotting were carried out according to example 1. The cells were […] in 25 μm TPCK or TLCK (both from Sigma), and pre-treated in dimethylsulfoxide (DMSO). The control cultures received an equivalent amount of DMSO.
The results of the experiments are shown in FIG. 4: A: Effect of TPCK on the induction by PMA. The cells were treated without (left panel) or in presence of TPCK with PMA for the stipulated periods. The cell extracts were tested for the DNA binding activity of NF-KB using EMSA (top panel) and for the IkB-α protein quantity using Western blotting (bottom panel). The position of the NF-KB-DNA complex in a section of a fluorogram of a native gel is shown by a filled arrowhead. […] B: Effect of TPCK on the activation of NF-KB by IL-1β (I), LPS (L) and PMA (P) in 7OZ/3 cells; in control cells (Co). The cells were treated with TPCK for 10 minutes before stimulation (lanes 6-8) or for an additional 10 minutes after stimulation (lanes 10-12; 30 minutes with IL-1β and PMA or 60 minutes with LPS). The total cell extracts of control cells (lanes 1-4) and cells treated with TPCK (lanes 5-12) were tested for the DNA binding activity of NF-KB using EMSA; a section of a fluorogram of a native gel is shown. […] C: Effect of TLCK on the activation of NF-KB by PMA. […]

IkB-α = assay: Western blotting of IkB-α in extracts of 7OZ/3 cells; assay type: cell-based, mouse; conditions: PMA treated 7OZ/3 cells, 100 μM PDTC
PKC = conditions: cited from earlier work

SMILES: S=C(S)N1CCCC1 [PDTC, pyrrolidindithiocarbamate]
- activation of NF-KB binding activities (NF-KB): effectively suppressed
- degradation of IkB-α protein (Western blot) (IkB-α): no significant degradation
- interference with PMA induced membrane association and kinase activity of PKC (PKC): does not interfere
